Results reported in US20090053138A1, “Stabilized Aptamers to Platelet Derived Growth Factor and their Use as Oncology Therapeutics” (priority 2002, published 2009).
Like-named read-outs stand apart in the source and are kept apart here. {PEG40k} = 40 kDa polyethylene glycol; [invdT] = inverted (3'-3') thymidine; [HEG] = hexaethylene glycol spacer

Columns and labels:
PDGF BB [1] = target: T1, PDGF BB (Homo sapiens, UniProt P01127); assay: Cell migration assay, RPE cells; assay type: cell-based; parameters: purchased PeproTech, Rocky Hill, N.J
Procedure: PDGF is a strong mitogen as well as a chemoattractant. […] In the cell migration assay 80,000 cells 3T3 rat fibroblasts (ATCC, Manassas, Va.) or RPE (retinal pigmented epithelial) cells (ATCC, Manassas, Va.) were plated per well into a 24 well plate with 8 micron filters (BD Biosciences, Discovery Labware, Bedford, Mass.). 0.5 ml DMEM/0.2% FCS was added to the top chamber and 0.8 ml DMEM/0.2% FCS was added to the bottom chamber. The system was equilibrated by incubating for 4 hours at 37 degrees celsius. Human PDGF-BB (PeproTech, Rocky Hill, N.J.) (for RPE cells) or rat PDGF-BB (PeproTech) (for 3T3 cells) was added to the bottom chamber (0 ng/ml-100 ng/ml final concentration). […] Cells were scraped off on the top of filter with a Q-tip. The cells that migrated to the bottom of the filter were fixed with a mixture of cold 50% Methanol/50% Acetone for 3 minutes.
Following incubation filters were washed with 1×PBS and stained with Giemsa Stain (Matheson Coleman and Bell) for 1-2 hours and migration was visualized by taking pictures on a Zeiss Axiovert 200M microscope.
The 96 well assay starts by bringing plates and reagents to room temperature. 150 ul of DMEM/0.2% FBS was added with or without chemoattractant to the wells of the feeder tray.
Following incubation, the migration chamber plate was removed and the non-migratory cells were discarded. The number of migratory cells was quantitated according to manufacturer's recommended instructions. In brief, media from the top side was removed by flipping out the remaining cell suspension, and was placed onto a new feeder tray that contains 150 ul of pre-warmed Cell Detachment Solution. This mixture was incubated for 30 minutes at 37 degrees celsius. CyQuant GR Dye 1:75 was diluted with 4× Lysis Buffer and 50 ul of the Lysis Buffer/Dye Solution was added to each well containing 150 ul of the solution containing migratory cells.

Lewis lung carcinoma = assay: Mouse Lewis lung carcinoma model; settings: scrambled aptamer 50 mg/kg
Source text: A 1 mm^3 piece of Lewis lung carcinoma was implanted under the dorsal skin of wild-type C57BL/6 mice and allowed to grow. […] At the end of the seven day period, the mice were anesthetized, and the following tissues were fixed by vascular perfusion with 1% paraformaldehyde, removed and frozen for cryotstat sectioning: tumor (Lewis lung carcinoma), pancreas, liver, kidney, trachea, spleen, jejunum, and thyroid tissue. The resulting slides were stained with antibodies against various markers as described below.
Sections of tumors were cut (80 μm) and stained with either anti-CD31 or anti-α smooth muscle actin (“α-SMA”) antibodies. Digital fluorescence microscopic images were obtained for area density measurements by using a CoolCam low-light 3-chip RGB CCD camera. […] In addition, the tumors were imaged by confocal microscopy. […]
Sections of tumors were cut (80 μm) and stained with either anti-CD31 or anti-type IV collagen antibodies. Digital fluorescence microscopic images were obtained for area density measurements by using a CoolCam camera. […]
Pericyte expression was measured using the Cool Cam and confocal images were also taken.
The extent of pericyte colocalization with endothelial cells was then measured on digital Cool Cam images.
The extent of pericyte colocalization with endothelial cells was measured on digital CoolCam images. […]

PDGF BB [2] = target: T1, PDGF BB; assay: Competition binding assay, PDGF-BB; parameters: purchased PeproTech, Rocky Hill, N.J; settings: scrambled variant
Procedure: Binding reactions were carried out in phosphate-buffered saline (Cellgro, Herndon, Va.) containing 0.2 mg/mL bovine serum albumin (NEB) and 0.02 mg/mL tRNA (Sigma, St. Louis, Mo.). The reactions were equilibrated for a period of 15-30 minutes at room temperature, then filtered through a sandwich of nitrocellulose (Protran membrane, Perkin-Elmer, Boston, Mass.) and nylon (Hybond membrane, Amersham, Piscataway, N.J.) membranes to separate target bound aptamer from free aptamer.
Next, a study was done to determine whether ARC126 cross reacted with PDGF-BB of species other than human. Competition binding assays were set up by dot blot analysis, as previously described, using human, rat, and mouse PDGF-BB (PeproTech, Rocky Hill, N.J.).
The competitive binding assay previously described was used to determine the in vitro binding affinity and selectivity of ARC594 for different PDGF isoforms. Different concentrations of unlabeled, competitor aptamer were titrated in separate reactions against a fixed (<0.1 nM) amount of ^32P-radiolabeled ARC594 in buffer containing a fixed amount (0.1 nM) of the aptamer's cognate target (PDGF-BB; PeproTech). UnPEGylated version of ARC594 was radiolabeled at the 5′ terminus by incubation with γ-^32P-ATP (ICN) and polynucleotide kinase (NEB). Binding reactions were carried out in phosphate-buffered saline (Cellgro) containing 0.2 mg/mL bovine serum albumin (NEB) and 0.02 mg/mL tRNA (Sigma). The reactions were equilibrated for a period of 15-30 minutes at room temperature, then filtered through a sandwich of nitrocellulose (Protran membrane, Perkin-Elmer) and nylon (Hybond membrane, Amersham) membranes to separate target bound aptamer from free aptamer. […] The data was expressed as the ratio of the counts per minute (CPM) of radioactivity due to ^32P-ARC594 bound to PDGF BB on the nitrocellulose membrane (CPMnitrocellulose or CPMnc) over the total CPM (CPMtotal=CPMnitrocellulose+CPMnylon).

[3] = mouse, in vivo, 10 mg/kg
Source text: The pharmacokinetic (PK) data shown in FIG. 12A was subjected to non-compartmental analysis (NCA) using the industry-standard software package WinNonLin™ v.4.0 (Pharsight Corp., Mountain View, Calif.). […] The pharmacokinetic (PK) data shown in FIG. 12B was subjected to noncompartmental analysis (NCA) using the industry-standard software package WinNonLin™ v.4.0 (Pharsight Corp., Mountain View, Calif.).
The pharmacokinetic (PK) data shown in FIG. 12B was subjected to noncompartmental analysis (NCA) using the industry-standard software package WinNonLin™ v.4.0 (Pharsight Corp., Mountain View, Calif.).

PDGF = assay: PDGF-driven Elk Luciferase reporter gene assay; assay type: cell-based; settings: PDGF 50 ng/ml, 3T3 cells
Procedure: 10,000 3T3 cells/well were plated in DMEM/10% FBS in a 96 well plate. They were transfected using FuGene (Roche, Indianapolis, Ind.) at 3:1 ratio with 5 ng of ELK-1 (Stratagene, La Jolla, Calif.) and 20 ng of pFR-Luciferase plasmids (Stratagene, La Jolla, Calif.). When PDGF is added at a final concentration of 50 ng/ml to 3T3 cells, an increase in the Luciferase signal can be observed which corresponds to the effect of the mitogen on the reporter gene. Steady Glo Luciferase assay (Promega, Madison, Wis.) was used to detect luciferase. […] (FIG. 17.)

PDGF BB [4] = target: T1, PDGF BB; settings: in vivo, iv, 10 mg/kg
Procedure: As a secondary test of both the plasma pharmacokinetics and the in vivo bioactivity of ARC594 the competition binding assay was used to assay the same plasma samples used to generate the pharmacokinetic data. Serial 1:10 dilutions of plasma sample were prepared in phosphate-buffered saline (1×PBS) and mixed with a fixed concentration of ^32P-ARC594, then added to human PDGF-BB. The final concentration of PDGF in each assay was 0.1 nM, and the final concentration of ^32P-ARC594<0.1 nM. In this experiment, the plasma samples were analyzed by comparison with a standard curve generated with samples of known ARC594 concentrations in 1×PBS.

[5] = 100 nM aptamer, 5 nM PDGF BB, 24 well format

T1 sequence (P01127 82-190 limits assumed): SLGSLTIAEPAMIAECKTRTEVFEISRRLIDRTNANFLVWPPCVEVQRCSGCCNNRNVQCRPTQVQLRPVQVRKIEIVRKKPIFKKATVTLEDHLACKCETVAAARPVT

Substance	migration of RPE cells (PDGF BB [1]; [5])	migration of RPE cells (PDGF BB [1]; 96 well format)	effect on tumor vasculature (confocal images) (Lewis lung carcinoma)	binding to PDGF (PDGF BB [2])	Cmax ([3]; ip)	Vz ([3]; ip)	bioavailability, F ([3]; ip)	t1/2 ([3]; ip)	Cmax ([3]; iv)	Vz ([3]; iv)	bioavailability, F ([3]; iv)	Cmax ([3]; sc)	Vz ([3]; sc)	bioavailability, F ([3]; sc)	t1/2 ([3]; sc)	IC50 (PDGF)	concentration reducing the Luciferase signal to no mitogen levels (PDGF)	active aptamer in plasma (PDGF BB [4])
5′-(SEQ ID NO.4)-HEG-(SEQ ID NO:5)-HEG-(SEQ ID NO:6)-3 (chain 1 CAGCGUACG; chain 2 CGTACCGATUCA; chain 3 TGAAGCUG; HEG spacers joining pieces; synthetic aptamer; modified_base (4)..(4) cytidine is 2′-fluoro; modified_base (5)..(5) gm; modified_base (6)..(6) uridine is 2′-fluoro; modified_base (8)..(8) cytidine is 2′-fluoro; modified_base (9)..(9) gm; modified_base (7)..(7) gm; modified_base (10)..(10) uridine is 2′-fluoro; modified_base (11)..(11) cytidine is 2′-fluoro; modified_base (12)..(12) adenosine is 2′-O-Methyl; modified_base (6)..(6) cytidine is 2′-fluoro; modified_base (7)..(7) uridine is 2′-fluoro; modified_base (8)..(8) gm) [ARC128, reference compound]	no activity	did not affect migration	did not affect the tumor vasculature	no longer binds PDGF														
5′-[40 K PEG]-(SEQ ID NO:1)-HEG-(SEQ ID NO:2)-HEG-(SEQ ID NO:3)-3′-dT-3′ (chain 1 CAGGCUACG; chain 2 CGTAGAGCAUCA; chain 3 TGATCCUG; piece 1: 2'-fluoro at 6, 8, 2'-O-methyl at 9, 5' {PEG40k}, 3' [HEG], other sugars and backbone not given here; piece 2: 2'-O-methyl at 5, 7, 12, 2'-fluoro at 10, 11, 3' [HEG], other sugars and backbone not given here; piece 3: 2'-fluoro at 5, 6, 7, 2'-O-methyl at 8, 3' [invdT], other sugars and backbone not given here) [ARC127]	inhibits the effects of 5 nM PDGF-BB	reduced migration levels to background			12.8 µM	0.078 L/kg	0.625	7.856 h	29.7 µM	0.053 L/kg	1.000	3.18 µM	0.238 L/kg	0.240	9.176 h	≤ 2 nM	3 nM	present and active
